Data taken from patent publication US20250346613A1, “BORIC ACID PROTEASOME INHIBITOR AND USE THEREOF” (ARTIVILA BIOPHARMA, priority 2022, published 2025).

Experiments:
[1] = Blood concentration measurement of orally-administrated mice; assay type: in vivo, C57BL/6JNifdc mice; details: C57BL/6JNifdc, mouse, plasma, oral, 30 mg/kg
Method: The C57BL/6JNifdc mice used in this experiment were provided by Zhejiang Vital River Laboratory Animal Technology Co., Ltd. The compounds were dissolved in DMSO/Solutol/Saline (v/v/v=10/10/80) as a stock solution (3 mg/mL). The stock solution was administrated orally to 6 C57BL/6JNifdc mice at a dose of 30 mg/kg. Blood was collected from the orbital venous plexus at 0.5 h, 1 h, 1.5 h, and 2 h after oral administration.
Approximately 200 μL of blood samples were collected into EDTAK2 Blood Collection tubes and then immediately centrifuged at 10,000 rpm for 5 min. 66 μL of plasma supernatant was added with 198 μL of acetonitrile (Energy), the resulting mixture was shaken on a vortex for 5 min, and then immediately centrifuged at 13000 rpm for 8 min. 200 μL of supernatant was taken for blood compound concentration measurement.
The compound was accurately weighed and dissolved in acetonitrile to a concentration of 100 μg/mL. 50 μL of compound was pipetted and added to 4.95 mL of acetonitrile/water (v/v=3/1) solution to obtain 1000 ng/mL mother liquid. 650 μL of the mother liquid was taken and sequentially diluted with a solution of acetonitrile/water (v/v=3/1) in a 2-fold gradient to obtain standard samples with various concentrations of 500 ng/mL, 250 ng/mL, 125 ng/mL, 62.5 ng/mL, and 31.25 ng/mL.
Standard solutions with concentrations of 1000 ng/mL, 500 ng/mL, 250 ng/mL, 125 ng/mL, 62.5 ng/mL, and 31.25 ng/mL were measured by using LC-MS (LC-MS 2020+LC-2030 Plus, Shimadzu) SIM mode to obtain a calibration curve. The treated blood samples were measured by this method and then subjected to quantitative analysis by using the calibration curve to obtain compound concentration data of each treated blood sample.
The data were exported and the average blood compound concentration at each sampling time was calculated.
Blood compound concentration=compound concentration in treated blood sample×4/molecular weight of the compound. The average blood compound concentration is the average of the compound concentrations in the blood at each sampling time.

[2] = background statement; cannot be used orally; cited from earlier work
[3] = system: MM.1S cell strain; assay: Inhibitory activity of cell strain (CellTiter-Glo); assay type: cell-based; details: Homo sapiens, MM1.S, 72 h incubation
How it was run: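 Cells seeded at 1×10^5 per well in RPMI1640 complete medium for 24 h, then treated 72 h at 37 °C, 5% CO2 with 3-fold dilutions, final 5×10^−7 M down to 2.29×10^−10 M. CellTiter-Glo luminescence; inhibition calculated against DMSO-only cells and medium-only blanks.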

[4] = target: T1, β5c subunit of the 20S proteasome (Homo sapiens, UniProt P20618+P28074); assay: Proteasome inhibitory activity, β5c subunit (Raji cells treated with compound, lysed, Suc-LLVY-AMC substrate); assay type: cell-based; details: proteasome from Raji cells incubated with compound 4 h
T1 construct: The proteasome tested in the present disclosure was derived from Raji cells; endogenous in cells; host or cells: Raji cells
From the text: (§1) In the present disclosure, the fluorescent peptide substrate Ac-Ala-Asn-Trp-AMC (abbreviated as Ac-ANW-AMC) and the […] kit containing a fluorescent peptide substrate Suc-Leu-Leu-Val-Tyr-AMC (abbreviated as Suc-LLVY-AMC) (Promega, Item No. G8660) were used to detect the activities of the β5i subunit and β5c subunit of the 20S proteasome, respectively.
(§2) The proteasome tested in the present disclosure was derived from Raji cells, the fluorescent substrate Ac-ANW-AMC was purchased from Roche company, and other reagents were purchased from Sigma company. The experimental system was divided into two parts of cell lysis system and enzyme reaction system. […] The starting concentration of the compound (inhibitor) was 1 μM. It was diluted in a 3-fold serial dilution to a total of 8 concentrations, that is, the administration concentration can be 1 μM, 0.333 μM, 0.111 μM . . . , respectively, and the specific experimental process was described below.
(§3) Raji cells (1×10^6 cells) cryopreserved in liquid nitrogen were thawed rapidly in a water bath at 37° C. The cell pellet was transferred to a 15 mL centrifuge tube, added with 9 mL of fresh medium (Gibco RPMI1640 added with 10% fetal bovine serum and 1% double antibiotics), centrifuged at 120 g for 5 min, inoculated to 25 mL cell culture flasks, and passaged once every 2-3 days.
(§4) The compound was weighed and dissolved in DMSO to a concentration of 10 mM. The compound was then sequentially diluted to concentrations of 200 μM, 66.67 μM, 22.22 μM, 7.41 μM, 2.47 μM, 0.82 μM, 0.27 μM, and 0.091 μM with fresh medium. Raji cells in a good growth status were inoculated into a 48-well cell culture plate at 7×10^5 cells/mL.
(§5) Raji cells in a good growth status were taken and counted. They were then inoculated to a 48-well cell culture plate at 7×10^5 cells/mL. Each 5 μL of the various concentrations of diluted compounds above were taken and added to the culture plate inoculated with cells, and the lowest concentration of compound was 0 μM. The drug bortezomib (Velcade) and ONX-0914 were used as the positive control compounds. All cells were incubated at 37° C. for 4 h.
(§6) The compound-treated cells were sequentially transferred into 1.5 mL centrifuge tubes, centrifuged at 10000 rpm for 2 min, and the supernatants were removed. The cell pellet was resuspended in 1 mL of PBS, centrifuged at 10000 rpm for 2 min, and the supernatant was removed. Cells were resuspended by adding 100 μL of cell lysate (50 mM Tris of pH 7.5, 150 mM NaCl, 5 mM MgCl2, 5 mM ATP, 1 mM DTT, 0.01% NP-40, 1 mM Digitonin, and Cocktail), placed in an ice bath for 30 min, and centrifuged at 13000 rpm for 10 min.
(§7) 2 mg of fluorescent peptide substrate AC-ANW-AMC was dissolved in 424.7 μL of DMSO to obtain an 8 mM stock solution, and stored at −20° C. The stock solution was diluted 100-fold to a final concentration of […] for use in the reaction system. The fluorescent peptide substrate Suc-LLVY-AMC was prepared according to the instructions of the Promega kit.
(§8) Each 20 μL of the prepared proteasome solution above was added to a 96-well white luciferase microplate and added with 25 μL of AC-ANW-AM substrate buffer solution (50 mM Tris of pH 7.5, 150 mM NaCl, 5 mM MgCl2, 5 mM ATP, 80 uM Ac-ANW-AMC and 1 mM DTT) and 25 μL of Suc-LLVY-AMC substrate buffer solution for 10 min of reaction at 37° C. in the dark. Fluorescence values were read at 345 nm/445 nm by using a fluorence microplate reader.
(§9) The data were exported and the inhibition rate in percentage was calculated according to the following formula: Inhibition rate=(maximum signal value-compound signal value)/(maximum signal value−blank signal value)×100%.
(§10) Where the maximum signal was obtained from cell lysates treated with DMSO only, and the blank signal was obtained from wells containing only lysates.

[5] = target: T2, β5i subunit of the 20S proteasome (Homo sapiens, UniProt P20618+P28062); assay: Proteasome inhibitory activity, β5i subunit (Raji cells treated with compound, lysed, Ac-ANW-AMC substrate); assay type: cell-based; details: proteasome from Raji cells incubated with compound 4 h
T2 construct: The proteasome tested in the present disclosure was derived from Raji cells; endogenous in cells; host or cells: Raji cells
From the text: as §1, §2, §3, §4, §5, §6, §7, §8, §9, §10

Row | Structure (SMILES) | concentration at 0.5 h ([1]; 0.5 h, read-out: Average blood compound concentration (μM) 0.5 h) [µM] | concentration at 1 h ([1]; 1.0 h, read-out: Average blood compound concentration (μM) 1.0 h) [µM] | concentration at 1.5 h ([1]; 1.5 h, read-out: Average blood compound concentration (μM) 1.5 h) [µM] | concentration at 2 h ([1]; 2.0 h, read-out: Average blood compound concentration (μM) 2.0 h) [µM] | bioavailability (oral) [2] | IC50 [3] [nM] | IC50 [4] [nM] | IC50 [5] [nM]
1 | CC(C)C[C@H](NC(=O)[C@H](Cc1ccccc1)NC(=O)c1cnccn1)B(O)O [Bortezomib, bortezomib, reference compound] | 2 | 1.3 | 1 | 0.9 | low bioavailability | – | – | –
2 | CC(C(=O)NCc1cccc(OC(F)(F)F)c1)C(=O)N[C@@H](Cc1coc2ccccc12)B(O)O (stereo partly drawn) [Example 73, ((1R)-2-(benzofuran-3-yl)-1-(2-methyl-3-oxo-3-((3-(trifluoromethoxy)benzyl)amino)propionamido)ethyl)boric acid] | – | – | – | – | – | ≤ 50 | ≤ 50 | ≤ 50
3 | COc1cccc(CNC(=O)C(C(=O)N[C@@H](Cc2coc3ccccc23)B(O)O)C(C)C)c1 (stereo partly drawn) [Example 75, ((1R)-2-(benzofuran-3-yl)-1-(2-((3-methoxybenzyl)carbamoyl)-3-methylbutanamido)ethyl)boric acid] | – | – | – | – | – | ≤ 50 | ≤ 50 | ≤ 50
4 | CC(C(=O)NCc1cccc(C(F)(F)F)c1)C(=O)N[C@@H](Cc1coc2ccccc12)B(O)O (stereo partly drawn) [Example 77, ((1R)-2-(benzofuran-3-yl)-1-(2-methyl-3-oxo-3-((3-(trifluoromethyl)benzyl)amino)propionamido)ethyl)boric acid] | – | – | – | – | – | ≤ 50 | ≤ 50 | ≤ 50
5 | COc1cccc(CNC(=O)C(CC2CC2)C(=O)N[C@@H](Cc2ccc(C)cc2)B(O)O)c1 (stereo partly drawn) [Example 80, ((1R)-1-(2-(cyclopropylmethyl)-3-((3-methoxybenzyl)amino)-3-oxopropionamido)-2-(p-tolyl)ethyl)boric acid] | – | – | – | – | – | ≤ 50 | ≤ 50 | ≤ 50
6 | COc1cccc(CNC(=O)C(CC2CC2)C(=O)N[C@@H](Cc2coc3ccccc23)B(O)O)c1 (stereo partly drawn) [Example 81, ((1R)-2-(benzofuran-3-yl)-1-(2-(cyclopropylmethyl)-3-((3-methoxybenzyl)amino)-3-oxopropionamido)ethyl)boric acid] | – | – | – | – | – | ≤ 50 | ≤ 50 | ≤ 50
7 | COc1cccc(CNC(=O)C(CC2CCCCC2)C(=O)N[C@@H](Cc2ccc(C)cc2)B(O)O)c1 (stereo partly drawn) [Example 83, ((1R)-1-(2-(cyclohexylmethyl)-3-((3-methoxybenzyl)amino)-3-oxopropionamido)-2-(p-tolyl)ethyl)boric acid] | – | – | – | – | – | > 500 | 50 to 200 | ≤ 50
8 | COc1cccc(CNC(=O)C(CC2CCCCC2)C(=O)N[C@@H](Cc2coc3ccccc23)B(O)O)c1 (stereo partly drawn) [Example 84, ((1R)-2-(benzofuran-3-yl)-1-(2-(cyclohexylmethyl)-3-((3-methoxybenzyl)amino)-3-oxopropionamido)ethyl)boroic acid] | – | – | – | – | – | ≤ 50 | ≤ 50 | ≤ 50
9 | COc1cccc(CNC(=O)C(C(=O)N[C@@H](Cc2ccc(C)cc2)B(O)O)C(C)C)c1 (stereo partly drawn) [Example 87, ((1R)-1-(2-((3-methoxybenzyl)carbamoyl)-3-methylbutanamido)-2-(p-tolyl)ethyl)boric acid] | – | – | – | – | – | ≤ 50 | ≤ 50 | ≤ 50
10 | Cc1ccc(C[C@H](NC(=O)C(C(=O)NCc2ccc(Cl)cc2Cl)C(C)C)B(O)O)cc1 (stereo partly drawn) [Example 88, ((1R)-1-(2-((2,4-dichlorobenzyl)carbamoyl)-3-methylbutanamido)-2-(p-tolyl)ethyl)boric acid] | – | – | – | – | – | 50 to 200 | 50 to 200 | ≤ 50
11 | CC(C)C(C(=O)NCc1ccc(Cl)cc1Cl)C(=O)N[C@@H](Cc1coc2ccccc12)B(O)O (stereo partly drawn) [Example 89, ((1R)-2-(benzofuran-3-yl)-1-(2-((2,4-dichlorobenzyl)carbamoyl)-3-methylbutanamido)ethyl)boric acid] | – | – | – | – | – | ≤ 50 | ≤ 50 | ≤ 50
12 | Cc1ccc(C[C@H](NC(=O)C(Cc2ccccc2)C(=O)NCc2ccc3[nH]ccc3c2)B(O)O)cc1 (stereo partly drawn) [Example 90, ((1R)-1-(3-(((1H-indol-5-yl)methyl)amino)-2-benzyl-3-oxopropionamido)-2-(p-tolyl)ethyl)boric acid] | – | – | – | – | – | ≤ 50 | ≤ 50 | ≤ 50
13 | O=C(NCc1ccc2[nH]ccc2c1)C(Cc1ccccc1)C(=O)N[C@@H](Cc1coc2ccccc12)B(O)O (stereo partly drawn) [Example 91, ((1R)-1-(3-(((1H-indol-5-yl)methyl)amino)-2-benzyl-3-oxopropionamido)-2-(benzofuran-3-yl)ethyl)boric acid] | – | – | – | – | – | ≤ 50 | 50 to 200 | ≤ 50
14 | Cc1ccc(C[C@H](NC(=O)C(C)C(=O)NCc2cccc(C(F)(F)F)c2)B(O)O)cc1 (stereo partly drawn) [Example 92, ((1R)-1-(2-methyl-3-oxo-3-((3-(trifluoromethyl)benzyl)amino)propionamido)-2-(p-tolyl)ethyl)boric acid] | – | – | – | – | – | ≤ 50 | ≤ 50 | ≤ 50
